Test results from ChEMBL document CHEMBL5226374, “Peniandranoids A-E: Meroterpenoids with Antiviral and Immunosuppressive Activity from a Penicillium sp” (J Nat Prod, 2023).
Calls of active or inactive are those of the source. The rule behind the calls is not given here.

Tests used:
[1] = Selectivity index, ratio of CC50 for cytotoxicity against African green monkey Vero cells to EC50 for antiviral activity against Dengue virus 3 infected in african green monkey Vero cells; format: toxicity, cell-based; details: read-out: Ratio CC50/EC50
dengue virus type 3 = experiment: Antiviral activity against Dengue virus 3 infected in african green monkey Vero cells assessed as reduction in viral protein expression incubated for 48 hrs by indirect immunofluorescence assay; format: functional, organism-based
[2] = Cytotoxicity against African green monkey Vero cells incubated for 48 hrs by DAPI staining based assay; format: toxicity, cell-based; details: chlorocebus sabaeus
[3] = Cytotoxicity against BALB/c mouse Splenocyte assessed as reduction in cell viability incubated for 48 hrs by MTT assay; format: toxicity, cell-based; details: splenocytes
[4] = Selectivity index, ratio of CC50 for cytotoxicity in BALB/c mouse splenocytes to EC50 for immunosuppressive activity in BALB/c mouse splenocytes assessed as reduction in ConA-induced mouse T-lymphocytes proliferation; format: toxicity, cell-based; details: read-out: Ratio CC50/EC50
[5] = Selectivity index, ratio of CC50 for cytotoxicity against MDCK cells to EC50 for antiviral activity against Influenza A virus A/PR/8 (H1N1) infected in MDCK cells; format: toxicity, cell-based; details: dog, read-out: Ratio CC50/EC50
Splenocyte [6] = experiment: Immunosuppressive activity in BALB/c mouse splenocytes assessed as reduction in LPS-induced mouse B-lymphocytes proliferation incubated for 48 hrs by MTT assay; format: functional, cell-based
L02 = experiment: Cytotoxicity against human L02 cells assessed as inhibition of cell growth by MTT assay; format: toxicity, cell-based
A549 = experiment: Cytotoxicity against human A549 cells assessed as inhibition of cell growth by MTT assay; format: functional, cell-based
HeLa = experiment: Cytotoxicity against human HeLa cells assessed as inhibition of cell growth by MTT assay; format: functional, cell-based
HT-29 = experiment: Cytotoxicity against human HT-29 cells assessed as inhibition of cell growth by MTT assay; format: functional, cell-based
Influenza A virus = experiment: Antiviral activity against Influenza A virus A/PR/8 (H1N1) infected in MDCK cells assessed as inhibition of viral growth incubated for 48 hrs by indirect immunofluorescence assay; format: functional, organism-based
HCT-116 = experiment: Cytotoxicity against human HCT-116 cells assessed as inhibition of cell growth by MTT assay; format: functional, cell-based
MCF7 = experiment: Cytotoxicity against human MCF7 cells assessed as inhibition of cell growth by MTT assay; format: functional, cell-based
Splenocyte [7] = experiment: Immunosuppressive activity in BALB/c mouse splenocyte assessed as reduction in ConA-induced mouse T-lymphocytes proliferation incubated for 48 hrs by MTT assay; format: functional, cell-based
[8] = Cytotoxicity against human HEp-2 cells assessed as reduction in cell viability incubated for 6 days by CellTiter-Glo assay; format: toxicity, cell-based; details: time 6 day
[9] = Cytotoxicity against MDCK cells assessed as reduction in cell viability incubated for 48 hrs by CellTiter-Glo assay; format: toxicity, cell-based, Canis lupus familiaris; details: dog
[10] = Selectivity index, ratio of CC50 for cytotoxicity in BALB/c mouse splenocytes to EC50 for immunosuppressive activity in BALB/c mouse splenocytes assessed as reduction in LPS-induced mouse B-lymphocytes proliferation; format: toxicity, cell-based; details: read-out: Ratio CC50/EC50
[11] = Selectivity index, ratio of CC50 for cytotoxicity against human HEp-2 cells to EC50 for antiviral activity against Respiratory syncytial virus infected in human HEp-2 cells; format: toxicity, cell-based; details: read-out: Ratio CC50/EC50
[12] = test system: Respiratory syncytial virus; experiment: Antiviral activity against Respiratory syncytial virus infected in human HEp-2 cells assessed as inhibition of virus-induced cytopathic effect measured after 6 days by CellTiter-Glo assay; format: functional, organism-based; details: HEp-2, 144 h

SMILES	selectivity ratio [1]	EC50 (dengue virus type 3)	CC50 at 48 h [2]	CC50 at 48 h [3] [µM]	selectivity ratio [4]	selectivity ratio [5]	EC50 (Splenocyte [6]) [µM]	Activity (L02)	Activity (A549)	Activity (HeLa)	Activity (HT-29)	EC50 (Influenza A virus)	Activity (HCT-116)	Activity (MCF7)	EC50 (Splenocyte [7]) [µM]	CC50 at 144 h [8]	CC50 at 48 h [9]	selectivity ratio [10]	selectivity ratio [11]	EC50 [12] [µM]
C#C[C@@]1(O)[C@H](O)[C@@H](CO)O[C@H]1n1ccc2c(N)ncnc21	67	1.1 µM	74 µM																	
COC(=O)[C@@]12C(=O)[C@](C)(Cc3c(O)c(C)cc(C(C)=O)c3O)C(=O)[C@]1(C)C(C)=C[C@H]1[C@]3(C=O)CC[C@H](OC(C)=O)C(C)(C)[C@H]3CC[C@@]12C	< 1	> 100 µg/mL	73 µg/mL	> 50	> 2.6	> 26	> 50	Non-Toxic	inactive	inactive	inactive	19 µg/mL	inactive	inactive	19	43 µg/mL	> 500 µg/mL			
COC(=O)[C@@]12C(=O)[C@](C)(C(=O)c3cc(OC)c(O)c(O)c3C(C)=O)C(=O)[C@]1(C)C(C)=C[C@H]1[C@]3(C=O)CC[C@H](OC(C)=O)C(C)(C)[C@H]3CC[C@@]12C				44	1.9	8.1	23	Non-Toxic	inactive	inactive	inactive	14 µg/mL	inactive	inactive	23		114 µg/mL	1.9		
CC/C=C/C=C/[C@@]1(C)OC(C[C@H](C)[C@]2(C)C(=O)[C@]3(C)C(C)=C[C@H]4[C@]5(C=O)CC[C@H](OC(C)=O)C(C)(C)[C@H]5CC[C@]4(C)[C@]3(C(=O)OC)C2=O)=C(C(=O)OC)C1=O				19	2.2		8.5								8.5			2.2		
CC/C=C/C=C/[C@@]1(C)OC(C[C@@H](C)[C@]2(C)C(=O)[C@]3(C)C(C)=C[C@H]4[C@]5(C=O)CC[C@H](OC(C)=O)C(C)(C)[C@H]5CC[C@]4(C)[C@]3(C(=O)OC)C2=O)=C(C(=O)OC)C1=O				26	1.1		7.5								23			3.5		
COC(=O)[C@@]12C(=O)[C@](C)(Cc3c(O)c(C)cc(C(C)=O)c3O)C(=O)[C@]1(C)C(C)=C[C@H]1[C@]3(CO)CC[C@H](OC(C)=O)C(C)(C)[C@H]3CC[C@@]12C				> 50			50	Non-Toxic	inactive	inactive	inactive		inactive	inactive	> 50			> 1		
COC(=O)[C@@]12C(=O)[C@](C)(C(=O)c3cc(OC)c(O)c(O)c3C(C)=O)C(=O)[C@]1(C)C(C)=C[C@H]1[C@]3(C)CC[C@H](OC(C)=O)C(C)(C)[C@H]3CC[C@@]12C				21	1.9		8.8	Non-Toxic	inactive	inactive	inactive		inactive	inactive	11			2.4		
COC(=O)C1=C(C[C@@H](C)[C@]2(C)C(=O)[C@]3(C)C(C)=C[C@H]4[C@]5(C=O)CC[C@H](OC(C)=O)C(C)(C)[C@H]5CC[C@]4(C)[C@]3(C(=O)OC)C2=O)O[C@](C)(/C=C/C=C/[C@H](C)O)C1=O				> 50	> 1.9		12	Non-Toxic	inactive	inactive	inactive		inactive	inactive	27			> 4.2		
NC(=O)c1ncn([C@@H]2O[C@H](CO)[C@@H](O)[C@H]2O)n1 [RIBAVIRIN]						> 71						4.2 µM				95 µM	> 300 µM		18	5.4
COc1c(C)c2c(c(O)c1C/C=C(\C)CCC(=O)OCCN1CCOCC1)C(=O)OC2 [MYCOPHENOLATE MOFETIL]							0.48													
